Measured values reported in paper PMC12606608, “Identification of Novel Selective Transient Receptor Potential Vanilloid 4 (TRPV4) Agonists” (Current Pharmaceutical Design, 2025).
Entries after “also recorded” stand apart in the source; their conditions may differ. Where two headings read alike, the source gives them in different places.

Legend:
mouse TRPV4 = molecular target: T1, mouse TRPV4 (Mus musculus, UniProt Q9EPK8); assay: Live-cell Fura-2 Ca2+ imaging in HEK293T cells transiently transfected with mouse TRPV4 (TRPV4-HEK293 cells); format: cell-based; details: for Ca2+ influx in the presence of GSK219: agonist 30 nM, pre- and co-applied 100 nM GSK219; for Hill coefficient: concentration-response curve; for Ca2+ influx (F340/F380): 30 nM, 2 min
T1 construct: expressed in transfected cells; host or cells: HEK293 (ATCC CRL-1573; elsewhere called HEK293T), transient, Lipofectamine 2000
Experimental: HEK293 cells were purchased from ATCC (ATCC CRL-1573; Manassas, VA, USA). As previously reported, the cells were tested for mycoplasma contamination before being cultured in the laboratory and grown as a monolayer in Dulbecco’s modified Eagle’s medium (DMEM) (Life Technologies, Carlsbad, CA, USA), supplemented with 10% fetal bovine serum (FBS; Life Technologies), 100 units/mL penicillin, and 100 μg/mL streptomycin. The cells were maintained in a humidified incubator at 37°C under 5% CO2. The cDNAs for mouse TRPV4 (mTRPV4) were transiently transfected into HEK293 cells for at least 24 hours using Lipofectamine 2000 (Invitrogen, Waltham, MA, USA).
(§1) Fura-2-based ratiometric measurements of intracellular calcium concentration ([Ca^2+]i) were performed as previously described. HEK293T cells transiently transfected with mTRPV4, primary keratinocytes, and macrophages were loaded with 4 μM Fura-2 AM (Life Technologies) in culture medium at 37°C for 60 minutes. The cells were then washed three times and incubated in Hanks’ balanced salt solution (HBSS) at room temperature for 30 minutes before use. Fluorescence intensities were measured at excitation wavelengths of 340 nm and 380 nm using an inverted Leica fluorescence microscope equipped with excitation filter wheels (340 nm, 360 nm, and 380 nm). The data were captured using LAS X imaging software (Leica Microsystems, Wetzlar, Germany). The Fura-2 ratios (F340/F380) were used to indicate changes in intracellular calcium ion concentrations ([Ca^2+]i) in response to stimulation. These values were derived from time-lapse imaging of each coverslip. The baseline of the cells was measured in the resting state, and once the value stabilized, the cells were treated with drugs. If no significant difference in the cell baseline was observed, cell viability was considered consistent. The activation threshold was defined as three standard deviations (SDs) above the mean, which corresponds to approximately 20% above the baseline.
GSK101 and the compounds were dissolved to create a concentration gradient (0.3 nM, 3 nM, 30 nM, 100 nM, 0.3 μM, 3 μM, 30 μM, 300 μM). Live-cell calcium imaging experiments were performed using fura-2-labeled TRPV4-HEK293 cells, and the fluorescence curves were recorded for each concentration of the compounds. The experiments were repeated three times, with the number of live cells in each field of view exceeding 100. The real-time fluorescence intensity curves from each experiment were statistically analyzed to calculate the cell response rate (the percentage of cells showing a fluorescence increase greater than 20% above baseline relative to the total number of cells). The concentration-response curves were fitted using GraphPad Prism (with the logarithm of concentration on the X-axis and the response rate on the Y-axis), and the Hill coefficient and EC50 values for each compound were automatically output.
To evaluate the efficacy of these synthetic analogues in vitro, we assessed their ability to activate TRPV4 using a Ca^2+ imaging assay. Because of the low expression of TRPV4 in native cells, we utilized a heterologous expression system and conducted Ca^2+ imaging in HEK293T cells that were transiently transfected with mouse TRPV4 (TRPV4-HEK293 cells).

[1] = molecular target: T2, TRPV4 in primary keratinocytes (Mus musculus, UniProt Q9EPK8); assay: Live-cell Ca2+ imaging in primary keratinocytes of neonatal TRPV4+/+ mice; format: cell-based; details: for [Ca2+]i response: 0.3 μM
T2 construct: endogenous in cells; host or cells: primary keratinocytes of neonatal (P0-P2) mice
Experimental: Mice (P0-P2) were sacrificed and soaked in 10% povidone-iodine for 5 min. After being rinsed with 70% ethanol multiple times, the skin was removed and placed in a Petri dish containing PBS solution with 0.25% dispase II and incubated at 4°C overnight. The epidermis was then separated from the subcutaneous tissues, and keratinocytes were separated from the epidermis using a cell scraper and collected in 2 mL mouse keratinocyte media (Life Technologies). Dissociated cells were transferred to a 15% BSA column (1 mL) and centrifuged for 5 min at 1000 rpm. The cells were resuspended and seeded in […] Petri dishes containing 8-9 culture slides and placed in the culture incubator.
as §1, with “baseline. […]” for “baseline.”

[2] = molecular target: T3, TRPV4 in peritoneal macrophages (Mus musculus, UniProt Q9EPK8); assay: Live-cell Ca2+ imaging in freshly dissociated peritoneal macrophages from TRPV4+/+ mice; format: cell-based; details: for [Ca2+]i response: 0.3 μM
T3 construct: endogenous in cells; host or cells: freshly dissociated murine peritoneal macrophages
Experimental: Peritoneal macrophages were isolated as previously described. The mice were euthanized by cervical dislocation, and their abdomens were dissected in the middle. Six milliliters of cold phosphate-buffered saline (PBS) was instilled into the peritoneal cavity, followed by gentle massage and subsequent aspiration. The samples were centrifuged for 5 min at 4°C and 300 g, resuspended in 2 mL PBS, and filtered using […] cell strainers. After another centrifugation, the cell suspensions were seeded in […] Petri dishes containing 8-9 culture slides and placed in a culture incubator (37°C, 5% CO2).
as §1, with “baseline. […]” for “baseline.”

C57BL/6J mice [3] = assay: Acute itch test (intradermal injection into the nape, scratches in 30 min); format: in vivo, mouse; details: 50 µL intradermal, wild-type mice
Experimental: (§2) Eighty adult male wild-type C57BL/6J mice and thirty TRPV4 knockout C57BL/6J mice (weighing 23-25g) were purchased from Gem Pharmatech (Nanjing, China) and maintained under a 12-hour light-dark cycle at 24°C. For all experiments, mice aged 8 to 12 weeks were utilized and acclimatized to the experimental room one week before the experiments. The mice were assigned to the experimental and control groups (5 mice/group) using a computer-generated table of random numbers (0-10), as well as the sequence of dosing and measurement. All behavioral tests were recorded from a side view, and the evaluations were carried out by observers who were unaware of the animals' treatment and genotype.
Under 1 to 2% isoflurane anesthesia, the mice were shaved on the nape of the neck 5 to 7 days prior to the experiment. For all itch behavior experiments, the mice were acclimated in red plastic chambers for two days before measurements, with acclimation sessions lasting 2 hours on the first day and 1.5 hours on the day of measurement. GSK101 (30 μM) and the test compounds (30 μM and 300 μM) were formulated in 0.9% saline and administered via intradermal injection to the nape of the neck at a volume of 50 μL. […] Acute chemical itch was evaluated by counting the number of scratches within the 30-minute recording period.

C57BL/6J mice [4] = assay: Mechanical pain test (von Frey, intraplantar injection); format: in vivo, mouse
Experimental: as §2
The mice were allowed to acclimate for 1.5 hours in red plastic enclosures on a metal mesh platform. The test compounds (30 μM) were formulated in 0.9% saline solution and administered via intraplantar injection with a volume of 10 μL. Calibrated von Frey filaments (0.02, 0.04, 0.07, 0.16, 0.4, 0.6, 1.0, 1.4, and 2.0 g) were applied perpendicularly to the plantar surfaces of the mice's hind paws for up to 2 seconds, with sufficient force to cause the filament to bend. Brisk withdrawal or flinching of the hind paw during or immediately after application was considered a positive response. […] The threshold force required to elicit paw withdrawal (50% mechanical threshold) was obtained using the up-down method.

[5] = dose-response of cell response rate, TRPV4-HEK293 cells, read-out: EC50
[6] = GSK219 1 μM pre- and co-applied

T2 sequence (Q9EPK8 whole entry): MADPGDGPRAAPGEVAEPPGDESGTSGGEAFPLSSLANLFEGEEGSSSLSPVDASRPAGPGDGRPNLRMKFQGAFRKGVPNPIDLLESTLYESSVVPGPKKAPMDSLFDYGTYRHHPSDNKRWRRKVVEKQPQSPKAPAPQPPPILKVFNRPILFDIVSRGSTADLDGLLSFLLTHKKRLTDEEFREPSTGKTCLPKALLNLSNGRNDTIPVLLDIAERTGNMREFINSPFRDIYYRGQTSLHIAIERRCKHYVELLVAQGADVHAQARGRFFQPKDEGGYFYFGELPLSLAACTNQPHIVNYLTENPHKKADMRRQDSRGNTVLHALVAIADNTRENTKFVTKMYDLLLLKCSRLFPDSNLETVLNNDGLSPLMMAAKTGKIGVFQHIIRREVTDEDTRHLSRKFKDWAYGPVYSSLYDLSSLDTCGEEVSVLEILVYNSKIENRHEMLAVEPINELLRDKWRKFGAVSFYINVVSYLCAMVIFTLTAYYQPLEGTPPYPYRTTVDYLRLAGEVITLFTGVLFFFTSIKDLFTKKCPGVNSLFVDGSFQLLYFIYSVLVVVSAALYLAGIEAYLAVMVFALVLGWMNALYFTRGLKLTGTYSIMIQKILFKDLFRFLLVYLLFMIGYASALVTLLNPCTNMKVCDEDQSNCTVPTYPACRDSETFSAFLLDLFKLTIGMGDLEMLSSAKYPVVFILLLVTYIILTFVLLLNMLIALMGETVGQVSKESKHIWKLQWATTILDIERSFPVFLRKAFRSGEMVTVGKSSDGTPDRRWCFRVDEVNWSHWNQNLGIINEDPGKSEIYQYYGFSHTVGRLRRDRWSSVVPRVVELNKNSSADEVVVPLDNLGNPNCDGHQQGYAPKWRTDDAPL
T3 sequence (Q9EPK8 whole entry): as above
T1 sequence (Q9EPK8 whole entry): as above

Row | SMILES | Ca2+ influx in the presence of GSK219 (mouse TRPV4) | Hill coefficient (mouse TRPV4; TRPV4-HEK293 cells) | EC50 (mouse TRPV4; [5]) [µM] | Ca2+ influx (F340/F380) (mouse TRPV4; TRPV4-HEK293 cells) | other results
1 | CC(C)CC(NC(=O)c1cc2ccccc2s1)C(=O)N1CCN(C(=O)C(CO)NC(=O)c2ccc(Cl)cc2Cl)CC1 (stereo not drawn) [LM0024] | abolished | 0.7036 | 20 |  | 
2 | CC(C)CC(NC(=O)c1cc2ccccc2s1)C(=O)N1CC2(C1)CN(C(=O)C(CO)NS(=O)(=O)c1ccc(Cl)cc1)C2 (stereo not drawn) [LM6140] |  |  |  | no measurable current | 
3 | CC(C)CC(NC(=O)c1cc2ccccc2s1)C(=O)N1CCCN(C(=O)C(CO)NS(=O)(=O)c2ccc(Cl)cc2Cl)CC1 (stereo not drawn) [LM0038] | abolished | 1.0280 | 0.168 |  | [Ca2+]i response [1]: induced a significant TRPV4-mediated calcium response; also recorded: weaker calcium influx than before; [Ca2+]i response [2]: induced a significant TRPV4-mediated calcium response; also recorded: signals with lower peaks than before
4 | CC(C)C[C@H](NC(=O)c1cc2ccccc2s1)C(=O)N1CC2CCC(C1)N2C(=O)C(CO)NS(=O)(=O)c1ccc(Cl)cc1Cl (stereo partly drawn) [GM1004] | abolished | 1.1650 | 11.5 |  | 
5 | CC(C)CC(NC(=O)c1cc2ccccc2s1)C(=O)N1CCN(C(=O)C(CO)NC(=O)c2ccc(Cl)cc2)CC1 (stereo not drawn) [LM0025] |  |  |  | no measurable current | 
6 | C[C@H](CCC(=O)O)C[C@H](C)C[C@H](C)C(=O)/C=C(\O)[C@H](C)C[C@H](C)C/C=C/[C@@H](C)[C@@H](O)[C@@H](C)[C@@H](O)C[C@@H]1CC[C@@](C)([C@H]2CC[C@@](C)([C@@H](C)O)O2)O1 [ionomycin, reference compound] |  |  |  |  | Intracellular calcium concentration (positive control) (mouse TRPV4; 1 μM ionomycin, TRPV4-HEK293 cells): rapidly and significantly increased intracellular calcium concentration
7 | CC(C)CC(NC(=O)c1cc2ccccc2s1)C(=O)N1CC2(C1)CN(C(=O)C(CO)NS(=O)(=O)c1cccc(Cl)c1)C2 (stereo not drawn) [LM6142] |  |  |  | no measurable current | 
8 | CC(C)C[C@H](NC(=O)c1cc2ccccc2s1)C(=O)N1CCN(C(=O)[C@H](CO)NS(=O)(=O)c2ccc(Cl)cc2Cl)CC1 [GSK101, N-((1S)-1-{[4-((2S)-2-{[(2,4-dichlorophenyl)sulfonyl]amino}-3-hydroxypropanoyl)-1-piperazinyl]carbonyl}-3-methylbutyl)-1-benzothiophene-2-carboxamide, reference compound] | abolished | 0.9273 |  | produced a Ca^2+ influx of different strengths | [Ca2+]i response [1]: induced a significant TRPV4-mediated calcium response; EC50 (mouse TRPV4): 0.0137 µM; [Ca2+]i response [2]: induced a significant TRPV4-mediated calcium response; Number of scratching bouts within 30 minutes (average) (C57BL/6J mice [3]; 30 μM): 50; Number of scratches within 30 minutes (average) (C57BL/6J mice [3]; 300 µM): 88; Mechanical hyperalgesia (paw withdrawal) vs control group (C57BL/6J mice [4]; 30 µM, 10 µL intraplantar, wild-type mice): significantly induced mechanical hyperalgesia
9 | O=C(NC1(c2ccccc2)CC1)c1c(CN2CCC(N3CCCCC3)CC2)c(-c2cccc(C(F)(F)F)c2)nc2cc(Br)ccc12 [GSK219, reference compound] |  |  |  |  | Inhibition of agonist-elicited [Ca2+]i response [1, 6]: abolished the GSK101 action; Inhibition of agonist-induced Ca2+ influx (mouse TRPV4; 100 nM GSK219 pre- and co-applied, TRPV4-HEK293 cells): abolished the action of GSK101 and compounds; Inhibition of agonist-elicited [Ca2+]i response [2, 6]: abolished the GSK101 action; Block of compound-induced pain-like behavior (C57BL/6J mice [4]; GSK219 intraperitoneally 30 minutes before plantar injection of compounds (30 µM)): blocked the pain-like behavior induced by GSK101 derivatives
10 | CC(C)CC(NC(=O)c1cc2ccccc2s1)C(=O)N1CC2(C1)CN(C(=O)C(CO)NS(=O)(=O)c1ccccc1)C2 (stereo not drawn) [LM6147] | abolished | 1.1150 | 6.08 |  | 
11 | CC(C)CC(NC(=O)c1cc2ccccc2s1)C(=O)N1CC2COCC(C1)N2C(=O)C(CO)NS(=O)(=O)c1ccc(Cl)cc1Cl (stereo not drawn) [GM1009] | abolished | 0.2998 | 85.6 |  | 
12 | CC(C)CC(NC(=O)c1cc2ccccc2s1)C(=O)N1CC2(C1)CN(C(=O)C(CO)NS(=O)(=O)c1ccccc1Cl)C2 (stereo not drawn) [LM6146] | abolished | 0.3283 | 78.9 |  | Immediate pain-inducing effect compared with GSK101 (C57BL/6J mice [4]; 30 µM intraplantar, 0 h, wild-type mice): slightly weaker than that of GSK101; Pain-inducing effect one hour post-injection compared with GSK101 (C57BL/6J mice [4]; 30 µM intraplantar, 1 h, wild-type mice): reached a level comparable to GSK101
